Earlier results on 3 molecules are cited in US20220112625A1, “Diagnosing and Treating Neurological and Autoimmune Diseases by Optimizing Metabolic Responses” (priority 2017, published 2022).

Molecules are shown by their SMILES.

Data set [1] concerns the target PI3Kδ (Homo sapiens, UniProt O00329). Particulars: PI3Kγ versus PI3Kδ.
The target in data set [2] is PI3Kβ (Homo sapiens, UniProt P42338). Particulars: PI3Kγ versus PI3Kβ.
For data set [3], the target named is PI3Kα (Homo sapiens, UniProt P42336). The conditions noted are these: PI3Kγ versus PI3Kα.
Data set [4] deals with class I and class II PI3Ks.
Data set [5] deals with mTOR (Homo sapiens, UniProt P42345). The conditions noted are these: up to at least about 10 μM.

Sequence of PI3Kβ (P42338 whole entry, species assumed): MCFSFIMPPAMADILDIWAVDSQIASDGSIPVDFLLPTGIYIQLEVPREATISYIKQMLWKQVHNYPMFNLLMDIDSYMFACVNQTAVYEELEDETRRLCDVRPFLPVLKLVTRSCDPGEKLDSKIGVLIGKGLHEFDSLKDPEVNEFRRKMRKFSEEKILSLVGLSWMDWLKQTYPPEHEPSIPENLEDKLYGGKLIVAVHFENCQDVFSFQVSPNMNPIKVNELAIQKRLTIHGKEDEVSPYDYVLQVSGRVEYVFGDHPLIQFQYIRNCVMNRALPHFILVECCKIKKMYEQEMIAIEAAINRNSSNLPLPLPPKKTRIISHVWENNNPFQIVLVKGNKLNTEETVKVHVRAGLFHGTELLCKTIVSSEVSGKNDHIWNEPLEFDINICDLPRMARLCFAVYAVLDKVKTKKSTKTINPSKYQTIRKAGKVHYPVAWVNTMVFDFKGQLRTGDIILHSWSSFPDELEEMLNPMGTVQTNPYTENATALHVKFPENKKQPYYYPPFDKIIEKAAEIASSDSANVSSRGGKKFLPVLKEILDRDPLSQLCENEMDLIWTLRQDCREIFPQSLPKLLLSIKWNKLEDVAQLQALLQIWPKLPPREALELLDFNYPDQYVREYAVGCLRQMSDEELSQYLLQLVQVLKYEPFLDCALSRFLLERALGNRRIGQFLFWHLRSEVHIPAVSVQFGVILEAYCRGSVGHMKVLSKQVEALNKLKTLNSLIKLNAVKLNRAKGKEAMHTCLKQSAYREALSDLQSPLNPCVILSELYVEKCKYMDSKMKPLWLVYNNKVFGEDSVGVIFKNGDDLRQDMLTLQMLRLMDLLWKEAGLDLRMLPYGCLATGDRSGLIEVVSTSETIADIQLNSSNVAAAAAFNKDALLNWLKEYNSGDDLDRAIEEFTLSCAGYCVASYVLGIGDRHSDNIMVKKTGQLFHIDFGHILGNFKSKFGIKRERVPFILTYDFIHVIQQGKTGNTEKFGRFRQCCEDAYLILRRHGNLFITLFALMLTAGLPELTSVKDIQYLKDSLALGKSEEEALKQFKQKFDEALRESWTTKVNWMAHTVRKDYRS
Sequence of PI3Kβ (P27986 whole entry partner, species assumed): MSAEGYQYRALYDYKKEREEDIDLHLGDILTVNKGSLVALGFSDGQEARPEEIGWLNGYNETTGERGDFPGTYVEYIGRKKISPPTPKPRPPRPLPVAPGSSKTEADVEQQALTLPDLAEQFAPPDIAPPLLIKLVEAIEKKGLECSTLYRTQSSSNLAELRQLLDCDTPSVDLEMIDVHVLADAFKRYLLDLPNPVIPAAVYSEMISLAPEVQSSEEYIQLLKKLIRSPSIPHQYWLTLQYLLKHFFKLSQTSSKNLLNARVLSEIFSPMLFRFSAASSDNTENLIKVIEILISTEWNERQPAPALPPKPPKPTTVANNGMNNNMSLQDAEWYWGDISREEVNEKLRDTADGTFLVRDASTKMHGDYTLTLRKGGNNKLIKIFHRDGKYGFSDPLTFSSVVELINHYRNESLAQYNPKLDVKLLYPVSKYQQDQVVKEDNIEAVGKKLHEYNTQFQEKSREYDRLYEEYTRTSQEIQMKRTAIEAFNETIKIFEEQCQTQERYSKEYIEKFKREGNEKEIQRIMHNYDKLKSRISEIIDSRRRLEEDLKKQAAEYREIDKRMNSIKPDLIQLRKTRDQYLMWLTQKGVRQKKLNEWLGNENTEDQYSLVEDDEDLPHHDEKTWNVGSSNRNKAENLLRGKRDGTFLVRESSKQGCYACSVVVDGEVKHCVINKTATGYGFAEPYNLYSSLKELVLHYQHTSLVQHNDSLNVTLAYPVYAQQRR
Sequence of PI3Kα (P42336 whole entry, species assumed): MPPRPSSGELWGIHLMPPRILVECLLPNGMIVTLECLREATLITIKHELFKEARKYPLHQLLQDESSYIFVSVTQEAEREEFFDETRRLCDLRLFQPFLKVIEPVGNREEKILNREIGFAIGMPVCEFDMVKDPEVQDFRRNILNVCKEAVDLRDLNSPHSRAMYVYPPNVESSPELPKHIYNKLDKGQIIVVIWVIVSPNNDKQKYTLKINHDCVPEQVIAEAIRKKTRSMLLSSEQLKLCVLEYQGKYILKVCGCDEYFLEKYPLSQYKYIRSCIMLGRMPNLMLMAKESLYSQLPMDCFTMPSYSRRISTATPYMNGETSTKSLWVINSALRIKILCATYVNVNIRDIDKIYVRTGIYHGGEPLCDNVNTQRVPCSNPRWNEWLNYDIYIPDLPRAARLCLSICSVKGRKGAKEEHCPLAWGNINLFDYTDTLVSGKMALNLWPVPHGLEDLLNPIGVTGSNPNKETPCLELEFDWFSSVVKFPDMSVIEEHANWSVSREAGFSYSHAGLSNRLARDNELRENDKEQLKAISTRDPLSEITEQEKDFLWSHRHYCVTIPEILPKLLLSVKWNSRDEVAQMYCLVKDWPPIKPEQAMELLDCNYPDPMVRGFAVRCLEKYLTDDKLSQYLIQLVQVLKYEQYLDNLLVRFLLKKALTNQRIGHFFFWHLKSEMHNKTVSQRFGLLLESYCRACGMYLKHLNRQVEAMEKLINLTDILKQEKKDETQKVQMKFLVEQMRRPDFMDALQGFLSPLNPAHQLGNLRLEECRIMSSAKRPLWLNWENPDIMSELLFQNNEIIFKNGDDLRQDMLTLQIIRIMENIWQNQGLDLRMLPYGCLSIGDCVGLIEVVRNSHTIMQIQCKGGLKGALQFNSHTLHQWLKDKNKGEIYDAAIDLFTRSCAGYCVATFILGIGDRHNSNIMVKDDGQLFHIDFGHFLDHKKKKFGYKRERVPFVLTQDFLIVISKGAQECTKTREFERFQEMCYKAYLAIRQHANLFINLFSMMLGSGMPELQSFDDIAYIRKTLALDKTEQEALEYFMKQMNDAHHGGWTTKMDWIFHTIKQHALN
Sequence of PI3Kα (P27986 whole entry partner, species assumed): as the sequence (P27986 whole entry partner, species assumed) above
Sequence of PI3Kδ (O00329 whole entry, species assumed): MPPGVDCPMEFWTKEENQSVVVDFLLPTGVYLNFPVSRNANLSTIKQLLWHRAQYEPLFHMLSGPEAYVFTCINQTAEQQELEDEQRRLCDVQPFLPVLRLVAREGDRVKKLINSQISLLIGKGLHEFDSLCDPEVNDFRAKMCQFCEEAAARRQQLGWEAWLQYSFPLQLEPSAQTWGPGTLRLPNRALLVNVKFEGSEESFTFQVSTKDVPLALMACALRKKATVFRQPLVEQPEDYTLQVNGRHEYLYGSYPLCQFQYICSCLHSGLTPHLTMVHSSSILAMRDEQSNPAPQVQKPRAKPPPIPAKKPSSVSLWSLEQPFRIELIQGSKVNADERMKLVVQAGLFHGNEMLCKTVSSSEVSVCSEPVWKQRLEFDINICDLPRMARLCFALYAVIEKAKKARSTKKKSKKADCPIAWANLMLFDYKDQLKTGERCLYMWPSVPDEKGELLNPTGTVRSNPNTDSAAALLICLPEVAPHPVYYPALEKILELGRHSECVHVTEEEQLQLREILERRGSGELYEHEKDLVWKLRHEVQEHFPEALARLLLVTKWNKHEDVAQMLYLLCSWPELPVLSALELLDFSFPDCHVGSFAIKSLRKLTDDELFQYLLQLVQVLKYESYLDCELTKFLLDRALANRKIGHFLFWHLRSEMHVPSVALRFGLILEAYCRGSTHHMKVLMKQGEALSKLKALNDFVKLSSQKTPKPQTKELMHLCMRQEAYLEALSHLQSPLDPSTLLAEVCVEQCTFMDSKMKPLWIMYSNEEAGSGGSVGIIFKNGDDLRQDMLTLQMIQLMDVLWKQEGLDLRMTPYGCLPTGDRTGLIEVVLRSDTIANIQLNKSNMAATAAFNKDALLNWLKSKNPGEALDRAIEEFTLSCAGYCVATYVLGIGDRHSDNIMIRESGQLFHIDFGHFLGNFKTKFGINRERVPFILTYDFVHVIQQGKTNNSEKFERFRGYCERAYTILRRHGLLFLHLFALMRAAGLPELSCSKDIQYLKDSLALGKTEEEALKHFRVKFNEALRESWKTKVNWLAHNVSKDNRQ
Sequence of PI3Kδ (P27986 whole entry partner, species assumed): as the sequence (P27986 whole entry partner, species assumed) above

For the molecule `CC(C)(C)NS(=O)(=O)c1cncc(-c2cc(F)c3nc(N)nn3c2)c1` [CZC24832, 5-(2-amino-8-fluoro [1,2,4]triazolo[1,5-a]pyridin-6-yl)-N-(1,1-dimethylethyl)-3-pyridinesulfonamide], the “selectivity over PI3Kδ” value in data set [1] is on record as over 100 fold. For the same molecule, the “selectivity over PI3Kβ” value in data set [2] was 10 fold. In addition, the “selectivity over PI3Kα” value in data set [3] was over 100 fold.
Consider `C[C@@H]1COCCN1c1cc(=O)n2c(n1)N(Cc1cncc(Cl)c1)[C@H](C(F)(F)F)CC2` [SAR405, (8S)-9-[(5-chloro-3-pyridinyl)methyl]-6,7,8,9-tetrahydro-2-[(3R)-3-methyl-4-morpholinyl]-8-(trifluoromethyl)-4H-pyrimido[1,2-a]pyrimidin-4-one], for which, in data set [4] (up to at least about 10 μM), the “effect on class I and class II PI3Ks” value was “no effect”. Moreover, the “effect on mTOR” value in data set [5] is “no effect”.
On to `CC(C)(O)CNc1ncc(-c2ccnc(Nc3ccnc(Cl)c3)n2)c(CC2CC2)n1` [VPS34-IN1, 1-[[2-[(2-chloro-4-pyridinyl)amino]-4′-(cyclopropylmethyl)[4,5′-bipyrimidin]-2′-yl]amino]-2-methyl-2-Propanol], for which the “inhibition of the isoforms of class I as well as class II PI3Ks” value in data set [4] is on record as “does not significantly inhibit”.
